From patent US20240315993A1, “ANTIPARASITIC COMPOUNDS” (Intervet Inc., priority 2021, published 2024)

Experiments:
[1] = tested on: juvenile soft ticks (Ornithodoros moubata); assay: Guinea pig - efficacy against argaside tick; format: in vivo
Description: (§1) Guinea pigs were locally co-infested (using an infestation device on a shaved skin area) with juvenile soft ticks (Ornithodoros moubata) and bed bugs (Cimex lectularius) before the treatment day (Day 0) to provide a baseline-negative control value. Guinea pigs were treated orally (by gavage) or subcutaneously at a dose of 5 mg/kg bodyweight of a test compound in a formulation of 10% DMF/Emulsifier+90% Aqua ad injectabilia.
(§2) Repeated local infestations with both parasites were performed at different time points after treatment. Within approximately 45 min after each infestation ten engorged ticks and ten engorged bed bugs were • collected and the percentage of dead and damaged parasites per species were • assessed approximately 24 hours following collection. The efficacy was • calculated as % of inhibition ‘killed+damaged’ parasites in a treated group in comparison to the baseline-negative control (using a modified Schneider Orelli's formula).
(§3) Results: Activity of the test compounds at different evaluation time-points (≥80% inhibition were found active): […]

[2] = tested on: bed bugs (Cimex lectularius); assay: Guinea pig - efficacy against bed bug; format: in vivo
Description: as §1, §2, §3

[3] = tested on: Cabbage Looper (Trichoplusia ni); conditions: 128-well diet tray, average of eight wells, cited from earlier work; for Test B: Bioassay on CL, percent mortality rating: Cabbage Looper second instar larvae, 50 μg/cm^2, five to seven days; for Test B: percent mortality of Cabbage Looper (CL) larvae, rating: 50 μg/cm^2 on artificial diet, second instar larvae, 5-7 days
[4] = tested on: Yellow Fever Mosquito (Aedes aegypti); conditions: Aedes aegypti larvae about 1 day old, 96-well plate, scored after 3 days; cited from earlier work
[5] = tested on: Beet Armyworm (Spodoptera exigua); conditions: 128-well diet tray, average of eight wells, cited from earlier work; for Test A: Bioassay on BAW, percent mortality rating: Beet Armyworm second instar larvae, 50 μg/cm^2, five to seven days; for Test A: percent mortality of Beet Armyworm (BAW) larvae, rating: 50 μg/cm^2 on artificial diet, second instar larvae, 5-7 days
[6] = 5 mg/kg subcutaneous, after 7 days
[7] = 5 mg/kg subcutaneous, after 10 days
[8] = 5 mg/kg subcutaneous, after 14 days
[9] = 5 mg/kg subcutaneous, after 17 days
[10] = 5 mg/kg subcutaneous, after 21 days
[11] = 5 mg/kg subcutaneous, after 24 days
[12] = 5 mg/kg subcutaneous, after 28 days
[13] = 5 mg/kg subcutaneous, after 31 days
[14] = 5 mg/kg, for at least one week, both administration routes

O=C(Nc1ncc(F)cc1F)c1cc(NC(=O)C2C(c3cc(Cl)cc(C(F)(F)F)c3)C2(Cl)Cl)ccc1Cl (centres unmarked) [Compound 475]
activity against tick nymphs (≥80% inhibition, killed+damaged) ([1]; 5 mg/kg oral, Day 0): immediate activity
activity against tick nymphs (≥80% inhibition, killed+damaged) ([1]; 5 mg/kg oral, after 7 days): activity
activity against tick nymphs (≥80% inhibition, killed+damaged) ([1]; 5 mg/kg oral, after 10 days): activity
activity against tick nymphs (≥80% inhibition, killed+damaged) ([1]; 5 mg/kg oral, after 14 days): activity
activity against tick nymphs (≥80% inhibition, killed+damaged) ([1]; 5 mg/kg oral, after 17 days): activity
activity against tick nymphs (≥80% inhibition, killed+damaged) ([1]; 5 mg/kg subcutaneous, Day 0): immediate activity
activity against tick nymphs (≥80% inhibition, killed+damaged) [1, 6]: activity
activity against tick nymphs (≥80% inhibition, killed+damaged) [1, 7]: activity
activity against tick nymphs (≥80% inhibition, killed+damaged) [1, 8]: activity
activity against tick nymphs (≥80% inhibition, killed+damaged) [1, 9]: activity
activity against tick nymphs (≥80% inhibition, killed+damaged) [1, 10]: activity
activity against tick nymphs (≥80% inhibition, killed+damaged) [1, 11]: activity
activity against tick nymphs (≥80% inhibition, killed+damaged) [1, 12]: activity
activity against tick nymphs (≥80% inhibition, killed+damaged) [1, 13]: activity
activity against tick nymphs (≥80% inhibition, killed+damaged) ([1]; 5 mg/kg subcutaneous, after 35 days): activity
effective to control ticks [1, 14]: 100%
activity against bed bugs (≥80% inhibition, killed+damaged) ([2]; 5 mg/kg oral, Day 0): immediate activity
activity against bed bugs (≥80% inhibition, killed+damaged) ([2]; 5 mg/kg oral, after 7 days): activity
activity against bed bugs (≥80% inhibition, killed+damaged) ([2]; 5 mg/kg oral, after 10 days): activity
activity against bed bugs (≥80% inhibition, killed+damaged) ([2]; 5 mg/kg oral, after 14 days): activity
activity against bed bugs (≥80% inhibition, killed+damaged) ([2]; 5 mg/kg oral, after 17 days): activity
activity against bed bugs (≥80% inhibition, killed+damaged) ([2]; 5 mg/kg oral, after 21 days): activity
activity against bed bugs (≥80% inhibition, killed+damaged) ([2]; 5 mg/kg oral, after 24 days): activity
activity against bed bugs (≥80% inhibition, killed+damaged) ([2]; 5 mg/kg oral, after 28 days): activity
activity against bed bugs (≥80% inhibition, killed+damaged) ([2]; 5 mg/kg subcutaneous, Day 0): immediate activity
activity against bed bugs (≥80% inhibition, killed+damaged) [2, 6]: activity
activity against bed bugs (≥80% inhibition, killed+damaged) [2, 7]: activity
activity against bed bugs (≥80% inhibition, killed+damaged) [2, 8]: activity
activity against bed bugs (≥80% inhibition, killed+damaged) [2, 9]: activity
activity against bed bugs (≥80% inhibition, killed+damaged) [2, 10]: activity
activity against bed bugs (≥80% inhibition, killed+damaged) [2, 11]: activity
activity against bed bugs (≥80% inhibition, killed+damaged) [2, 12]: activity
activity against bed bugs (≥80% inhibition, killed+damaged) [2, 13]: activity
effective to control bed bugs [2, 14]: 100%

O=C(Nc1ccc(-n2ccnc2)cc1)c1cc(NC(=O)[C@H]2[C@H](c3cc(Cl)cc(Cl)c3)C2(Cl)Cl)ccc1Cl [c1]
Test B: Bioassay on CL, percent mortality rating [3]: A (50-100)
Test C: Bioassay on Yellow Fever Mosquito, mortality rating [4]: A (80-100)
Test A: Bioassay on BAW, percent mortality rating [5]: A (50-100)

O=C(Nc1ccc(-n2cncn2)cc1)c1cc(NC(=O)[C@H]2[C@H](c3cc(Cl)cc(Cl)c3)C2(Cl)Cl)ccc1Cl [c2]
Test B: Bioassay on CL, percent mortality rating [3]: A (50-100)
Test C: Bioassay on Yellow Fever Mosquito, mortality rating [4]: A (80-100)
Test A: Bioassay on BAW, percent mortality rating [5]: A (50-100)

Cc1cc(C(F)(C(F)(F)F)C(F)(F)F)cc(C)c1NC(=O)c1cc(NC(=O)[C@H]2[C@H](c3cc(Cl)cc(Cl)c3)C2(Cl)Cl)ccc1Cl [c3]
Test B: Bioassay on CL, percent mortality rating [3]: A (50-100)
Test C: Bioassay on Yellow Fever Mosquito, mortality rating [4]: D (No activity noticed in this bioassay)
Test A: Bioassay on BAW, percent mortality rating [5]: A (50-100)

O=C(Nc1ccc(NC(=O)C2CC2)cc1)c1cc(NC(=O)[C@H]2[C@H](c3cc(Cl)cc(Cl)c3)C2(Cl)Cl)ccc1Cl [c4]
Test B: Bioassay on CL, percent mortality rating [3]: A (50-100)
Test C: Bioassay on Yellow Fever Mosquito, mortality rating [4]: A (80-100)
Test A: Bioassay on BAW, percent mortality rating [5]: A (50-100)

O=C(CC1CC1)Nc1ccc(NC(=O)c2cc(NC(=O)[C@H]3[C@H](c4cc(Cl)cc(Cl)c4)C3(Cl)Cl)ccc2Cl)cc1 [c5]
Test B: Bioassay on CL, percent mortality rating [3]: A (50-100)
Test C: Bioassay on Yellow Fever Mosquito, mortality rating [4]: A (80-100)
Test A: Bioassay on BAW, percent mortality rating [5]: A (50-100)

COCC1(C(=O)Nc2ccc(NC(=O)c3cc(NC(=O)[C@H]4[C@H](c5cc(Cl)cc(Cl)c5)C4(Cl)Cl)ccc3Cl)cc2)CC1 [c6]
Test B: Bioassay on CL, percent mortality rating [3]: A (50-100)
Test C: Bioassay on Yellow Fever Mosquito, mortality rating [4]: A (80-100)
Test A: Bioassay on BAW, percent mortality rating [5]: A (50-100)

O=C(Nc1ccc(NC(=O)C2CC2(F)F)cc1)c1cc(NC(=O)[C@H]2[C@H](c3cc(Cl)cc(Cl)c3)C2(Cl)Cl)ccc1Cl (some centres unmarked) [c7]
Test B: Bioassay on CL, percent mortality rating [3]: A (50-100)
Test C: Bioassay on Yellow Fever Mosquito, mortality rating [4]: A (80-100)
Test A: Bioassay on BAW, percent mortality rating [5]: A (50-100)

CC(C)(C)CC(=O)Nc1ccc(NC(=O)c2cc(NC(=O)[C@H]3[C@H](c4cc(Cl)cc(Cl)c4)C3(Cl)Cl)ccc2Cl)cc1 [c8]
Test B: Bioassay on CL, percent mortality rating [3]: A (50-100)
Test C: Bioassay on Yellow Fever Mosquito, mortality rating [4]: D (No activity noticed in this bioassay)
Test A: Bioassay on BAW, percent mortality rating [5]: A (50-100)

O=C(Nc1ccc(-n2cnnc2)cc1)c1cc(NC(=O)[C@H]2[C@H](c3cc(Cl)cc(Cl)c3)C2(Cl)Cl)ccc1Cl [c9]
Test B: Bioassay on CL, percent mortality rating [3]: A (50-100)
Test C: Bioassay on Yellow Fever Mosquito, mortality rating [4]: A (80-100)
Test A: Bioassay on BAW, percent mortality rating [5]: A (50-100)

CC(=O)Nc1ccc(NC(=O)c2cc(NC(=O)[C@H]3[C@H](c4cc(Cl)cc(Cl)c4)C3(Cl)Cl)ccc2Cl)c(C)c1 [c10]
Test B: Bioassay on CL, percent mortality rating [3]: A (50-100)
Test C: Bioassay on Yellow Fever Mosquito, mortality rating [4]: A (80-100)
Test A: Bioassay on BAW, percent mortality rating [5]: A (50-100)

O=C(Nc1ccc2ncsc2c1)c1cc(NC(=O)C2C(c3cc(Cl)cc(Cl)c3)C2(Cl)Cl)ccc1Cl (centres unmarked) [c11]
Test B: Bioassay on CL, percent mortality rating [3]: A (50-100)
Test C: Bioassay on Yellow Fever Mosquito, mortality rating [4]: A (80-100)
Test A: Bioassay on BAW, percent mortality rating [5]: A (50-100)

O=C(Nc1ccc2[nH]ccc2c1)c1cc(NC(=O)C2C(c3cc(Cl)cc(Cl)c3)C2(Cl)Cl)ccc1Cl (centres unmarked) [c12]
Test B: Bioassay on CL, percent mortality rating [3]: A (50-100)
Test C: Bioassay on Yellow Fever Mosquito, mortality rating [4]: A (80-100)
Test A: Bioassay on BAW, percent mortality rating [5]: A (50-100)

O=C(Nc1ccc2cccnc2c1)c1cc(NC(=O)C2C(c3cc(Cl)cc(Cl)c3)C2(Cl)Cl)ccc1Cl (centres unmarked) [c13]
Test B: Bioassay on CL, percent mortality rating [3]: A (50-100)
Test C: Bioassay on Yellow Fever Mosquito, mortality rating [4]: B (More than 0 - Less than 80)
Test A: Bioassay on BAW, percent mortality rating [5]: A (50-100)

O=C(Nc1cnc2cc[nH]c2c1)c1cc(NC(=O)C2C(c3cc(Cl)cc(Cl)c3)C2(Cl)Cl)ccc1Cl (centres unmarked) [c14]
Test B: Bioassay on CL, percent mortality rating [3]: A (50-100)
Test C: Bioassay on Yellow Fever Mosquito, mortality rating [4]: B (More than 0 - Less than 80)
Test A: Bioassay on BAW, percent mortality rating [5]: A (50-100)

O=C(Nc1ccc2nc(Cl)[nH]c2c1)c1cc(NC(=O)C2C(c3cc(Cl)cc(Cl)c3)C2(Cl)Cl)ccc1Cl (centres unmarked) [c15]
Test B: Bioassay on CL, percent mortality rating [3]: A (50-100)
Test C: Bioassay on Yellow Fever Mosquito, mortality rating [4]: B (More than 0 - Less than 80)
Test A: Bioassay on BAW, percent mortality rating [5]: A (50-100)

COC(=O)Nc1ccc(NC(=O)c2cc(NC(=O)[C@H]3[C@H](c4cc(Cl)cc(Cl)c4)C3(Cl)Cl)ccc2Cl)cc1 [c16]
Test B: Bioassay on CL, percent mortality rating [3]: A (50-100)
Test C: Bioassay on Yellow Fever Mosquito, mortality rating [4]: B (More than 0 - Less than 80)
Test A: Bioassay on BAW, percent mortality rating [5]: A (50-100)

O=C(Nc1cc(C(F)(F)F)[nH]n1)c1cc(NC(=O)[C@H]2[C@H](c3cc(Cl)cc(Cl)c3)C2(Cl)Cl)ccc1Cl [c17]
Test B: Bioassay on CL, percent mortality rating [3]: A (50-100)
Test C: Bioassay on Yellow Fever Mosquito, mortality rating [4]: D (No activity noticed in this bioassay)
Test A: Bioassay on BAW, percent mortality rating [5]: A (50-100)

O=C(Nc1ccc(-n2cccn2)cc1)c1cc(NC(=O)C2C(c3cc(Cl)cc(Cl)c3)C2(Cl)Cl)ccc1Cl (centres unmarked) [c18]
Test B: Bioassay on CL, percent mortality rating [3]: A (50-100)
Test C: Bioassay on Yellow Fever Mosquito, mortality rating [4]: A (80-100)
Test A: Bioassay on BAW, percent mortality rating [5]: A (50-100)

Cc1cc(N)ccc1NC(=O)c1cc(NC(=O)C2C(c3ccc(F)c(Cl)c3)C2(Cl)Cl)ccc1Cl (centres unmarked) [c50]
Test B: Bioassay on CL, percent mortality rating [3]: A (50-100)
Test C: Bioassay on Yellow Fever Mosquito, mortality rating [4]: A (80-100)

Cc1cc(N)ccc1NC(=O)c1cc(NC(=O)C2C(c3cc(Cl)cc(Cl)c3)C2(Cl)Cl)ccc1Cl (centres unmarked) [c82]
Test B: Bioassay on CL, percent mortality rating [3]: A (50-100)
Test C: Bioassay on Yellow Fever Mosquito, mortality rating [4]: A (80-100)

Cc1cc(N)ccc1NC(=O)c1cc(NC(=O)C2C(c3cc(Cl)cc(Cl)c3)C2(Cl)Cl)ccc1Cl (centres unmarked) [c83]
Test B: Bioassay on CL, percent mortality rating [3]: A (50-100)
Test C: Bioassay on Yellow Fever Mosquito, mortality rating [4]: A (80-100)

CC(=O)OCCNc1ccc(NC(=O)c2cc(NC(=O)C3C(c4ccc(F)c(C(F)(F)F)c4)C3(Cl)Cl)ccc2Cl)c(C)c1 (centres unmarked) [c119]
Test B: percent mortality of Cabbage Looper (CL) larvae, rating [3]: A (50-100)
Test A: percent mortality of Beet Armyworm (BAW) larvae, rating [5]: A (50-100)

Cc1cc(NCCO)ccc1NC(=O)c1cc(NC(=O)C2C(c3ccc(F)c(C(F)(F)F)c3)C2(Cl)Cl)ccc1Cl (centres unmarked) [c120]
Test B: percent mortality of Cabbage Looper (CL) larvae, rating [3]: A (50-100)
Test A: percent mortality of Beet Armyworm (BAW) larvae, rating [5]: A (50-100)
